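Cells were grown in 96-well plates and exposed to each compound for 48 hours at five concentrations; endpoints were interpolated linearly between bracketing concentrations, or set to the highest concentration if not reached. The concentration for 50% growth inhibition is given as GI50. TGI: concentration producing complete growth inhibition.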
Tests used:
Assay in all cases: DTP human tumour cell line panel, 48 h
[1] = tested on: NCI/ADR-RES ovarian
[2] = tested on: SF-295 CNS
[3] = tested on: COLO 205 colon
[4] = tested on: NCI-H460 lung
[5] = tested on: RXF 393 renal
[6] = tested on: HS 578T breast
[7] = tested on: MDA-MB-231 breast
[8] = tested on: DU-145 prostate
[9] = tested on: RPMI-8226 leukemia
[10] = tested on: HOP-62 NSCLC
[11] = tested on: 786-0 renal
[12] = tested on: HCT-116 colon
[13] = tested on: HOP-92 NSCLC
[14] = tested on: OVCAR-4 ovarian
[15] = tested on: SK-MEL-2 melanoma
[16] = tested on: CAKI-1 renal
[17] = tested on: SK-MEL-28 melanoma
[18] = tested on: UACC-62 melanoma
[19] = tested on: MALME-3M melanoma
[20] = tested on: MDA-MB-435
[21] = tested on: HT29 colon
[22] = tested on: A498 renal
[23] = tested on: SK-OV-3 ovarian
[24] = tested on: SF-268 CNS
[25] = tested on: NCI-H522 lung
[26] = tested on: HCT-15 colon
[27] = tested on: OVCAR-8 ovarian
[28] = tested on: SNB-19 CNS
[29] = tested on: CCRF-CEM leukemia
[30] = tested on: UACC-257 melanoma
[31] = tested on: MOLT-4 leukemia
[32] = tested on: BT-549 breast
[33] = tested on: M14 melanoma
[34] = tested on: HL-60(TB) leukemia
[35] = tested on: SF-539 CNS
[36] = tested on: UO-31 renal
[37] = tested on: KM12 colon
[38] = tested on: SK-MEL-5 melanoma
[39] = tested on: PC-3 prostate
[40] = tested on: NCI-H226 lung
[41] = tested on: A549 NSCLC
[42] = tested on: LOX IMVI melanoma
[43] = tested on: OVCAR-3 ovarian
[44] = tested on: MCF7 breast
[45] = tested on: ACHN renal
[46] = tested on: U251 CNS
[47] = tested on: OVCAR-5 ovarian
[48] = tested on: IGROV1 ovarian
[49] = tested on: NCI-H23 lung
[50] = tested on: T-47D breast
[51] = tested on: SR leukemia
[52] = tested on: TK-10 renal
[53] = tested on: HCC-2998 colon
[54] = tested on: SW-620 colon
[55] = tested on: SNB-75 CNS
[56] = tested on: K-562 leukemia
[57] = tested on: SN12C renal

Compound: Cc1ccc(C(=O)c2sc3nc4c(cc3c2N)CCCC4)c(C)c1
- GI50 [1]: 0.239 µM
- TGI [1]: > 100 µM
- GI50 [2]: 0.291 µM
- TGI [2]: 98.9 µM
- GI50 [3]: 0.899 µM
- TGI [3]: 5.07 µM
- GI50 [4]: 0.348 µM
- TGI [4]: > 100 µM
- GI50 [5]: 0.328 µM
- TGI [5]: 2.31 µM
- GI50 [6]: 0.415 µM
- TGI [6]: > 100 µM
- GI50 [7]: 1.08 µM
- TGI [7]: > 100 µM
- GI50 [8]: 0.838 µM
- TGI [8]: > 100 µM
- GI50 [9]: 0.406 µM
- TGI [9]: 6.97 µM
- GI50 [10]: 0.465 µM
- TGI [10]: > 100 µM
- GI50 [11]: 0.617 µM
- TGI [11]: > 100 µM
- GI50 [12]: 0.26 µM
- TGI [12]: > 100 µM
- GI50 [13]: 3.36 µM
- TGI [13]: 87.6 µM
- GI50 [14]: 1.97 µM
- TGI [14]: > 100 µM
- GI50 [15]: 0.429 µM
- TGI [15]: > 71.2 µM
- GI50 [16]: 0.361 µM
- TGI [16]: > 100 µM
- GI50 [17]: 2.15 µM
- TGI [17]: > 100 µM
- GI50 [18]: 0.256 µM
- TGI [18]: > 100 µM
- GI50 [19]: 0.0754 µM
- TGI [19]: > 100 µM
- GI50 [20]: 0.0258 µM
- TGI [20]: 0.086 µM
- GI50 [21]: 0.443 µM
- TGI [21]: > 35 µM
- GI50 [22]: 0.236 µM
- TGI [22]: 11 µM
- GI50 [23]: 0.515 µM
- TGI [23]: > 100 µM
- GI50 [24]: 0.787 µM
- TGI [24]: > 100 µM
- GI50 [25]: 0.126 µM
- GI50 [26]: 0.159 µM
- TGI [26]: > 100 µM
- GI50 [27]: 0.807 µM
- TGI [27]: > 100 µM
- GI50 [28]: 4.68 µM
- TGI [28]: > 100 µM
- GI50 [29]: 0.311 µM
- TGI [29]: > 100 µM
- GI50 [30]: 0.539 µM
- TGI [30]: > 100 µM
- GI50 [31]: 0.563 µM
- TGI [31]: > 100 µM
- GI50 [32]: 1.2 µM
- TGI [32]: > 100 µM
- GI50 [33]: 0.19 µM
- TGI [33]: > 100 µM
- GI50 [34]: 0.263 µM
- TGI [34]: > 38.8 µM
- GI50 [35]: 0.25 µM
- TGI [35]: 0.956 µM
- GI50 [36]: 0.766 µM
- TGI [36]: > 100 µM
- GI50 [37]: 0.251 µM
- TGI [37]: > 100 µM
- GI50 [38]: 0.32 µM
- TGI [38]: > 37.9 µM
- GI50 [39]: 0.433 µM
- TGI [39]: > 100 µM
- GI50 [40]: 2.67 µM
- TGI [40]: > 100 µM
- GI50 [41]: 0.377 µM
- TGI [41]: > 100 µM
- GI50 [42]: 0.502 µM
- TGI [42]: > 100 µM
- GI50 [43]: 0.183 µM
- TGI [43]: > 31.9 µM
- GI50 [44]: 0.162 µM
- TGI [44]: > 100 µM
- GI50 [45]: 0.872 µM
- TGI [45]: > 100 µM
- GI50 [46]: 0.376 µM
- TGI [46]: > 100 µM
- GI50 [47]: 2.49 µM
- TGI [47]: > 100 µM
- GI50 [48]: 1.23 µM
- TGI [48]: > 100 µM
- GI50 [49]: 0.776 µM
- TGI [49]: > 100 µM
- GI50 [50]: 0.45 µM
- TGI [50]: > 69.8 µM
- GI50 [51]: 0.124 µM
- TGI [51]: > 73 µM
- GI50 [52]: 12.8 µM
- TGI [52]: > 100 µM
- GI50 [53]: 4.72 µM
- TGI [53]: > 100 µM
- GI50 [54]: 0.265 µM
- TGI [54]: > 100 µM
- GI50 [55]: 0.247 µM
- TGI [55]: 6.16 µM
- GI50 [56]: 0.0934 µM
- TGI [56]: > 100 µM
- GI50 [57]: 0.841 µM
- TGI [57]: > 100 µM

Reference: PubChem BioAssay (NCI)
